Consider six substances from patent publication US7998989B2, “2-Imino-1,3-thiazoline-based compounds and T-type calcium channel inhibitors containing the same” (Korea Institute of Science and Technology, priority 2007, dated 2011).

Test [1] concerns the target T1, α1G T-type calcium channel (Homo sapiens, UniProt O43497).
T1 construct: host or cells: HEK293
The test is described as follows: Assay for % inhibiting activity against T-type calcium channel using FDSS6000 (fluo-3 calcium imaging, KCl activation). The conditions noted are these: 10 μM; HEK293 cells stably expressing α1G T-type calcium channel and Kir2.1; compounds of the examples. Type of test: cell-based. The method, boiled down:
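HEK293 cells stably expressing α1G and Kir2.1 loaded with 5 μM fluo-3/AM, then in HEPES buffer (pH 7.4) with 10 mM CaCl2. Compound applied 75 s before 75 mM KCl; intracellular Ca2+ read as […] area, % inhibition relative to untreated control.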

The target of test [2] is T1, α1G T-type calcium channel. Briefly: Electrophysiological whole cell patch clamp measurement of T-type calcium channel current in HEK293 cells. In kind it is cell-based. The conditions noted are these: HEK293 cells expressing α1G; for HEK293cell (% Inhibition) 10 μM: inhibition of peak current; for IC50: read-out: IC50 (a1G). On the technique in general: In patch-clamp work, channel activity is measured electrically.

T1 sequence (O43497 whole entry): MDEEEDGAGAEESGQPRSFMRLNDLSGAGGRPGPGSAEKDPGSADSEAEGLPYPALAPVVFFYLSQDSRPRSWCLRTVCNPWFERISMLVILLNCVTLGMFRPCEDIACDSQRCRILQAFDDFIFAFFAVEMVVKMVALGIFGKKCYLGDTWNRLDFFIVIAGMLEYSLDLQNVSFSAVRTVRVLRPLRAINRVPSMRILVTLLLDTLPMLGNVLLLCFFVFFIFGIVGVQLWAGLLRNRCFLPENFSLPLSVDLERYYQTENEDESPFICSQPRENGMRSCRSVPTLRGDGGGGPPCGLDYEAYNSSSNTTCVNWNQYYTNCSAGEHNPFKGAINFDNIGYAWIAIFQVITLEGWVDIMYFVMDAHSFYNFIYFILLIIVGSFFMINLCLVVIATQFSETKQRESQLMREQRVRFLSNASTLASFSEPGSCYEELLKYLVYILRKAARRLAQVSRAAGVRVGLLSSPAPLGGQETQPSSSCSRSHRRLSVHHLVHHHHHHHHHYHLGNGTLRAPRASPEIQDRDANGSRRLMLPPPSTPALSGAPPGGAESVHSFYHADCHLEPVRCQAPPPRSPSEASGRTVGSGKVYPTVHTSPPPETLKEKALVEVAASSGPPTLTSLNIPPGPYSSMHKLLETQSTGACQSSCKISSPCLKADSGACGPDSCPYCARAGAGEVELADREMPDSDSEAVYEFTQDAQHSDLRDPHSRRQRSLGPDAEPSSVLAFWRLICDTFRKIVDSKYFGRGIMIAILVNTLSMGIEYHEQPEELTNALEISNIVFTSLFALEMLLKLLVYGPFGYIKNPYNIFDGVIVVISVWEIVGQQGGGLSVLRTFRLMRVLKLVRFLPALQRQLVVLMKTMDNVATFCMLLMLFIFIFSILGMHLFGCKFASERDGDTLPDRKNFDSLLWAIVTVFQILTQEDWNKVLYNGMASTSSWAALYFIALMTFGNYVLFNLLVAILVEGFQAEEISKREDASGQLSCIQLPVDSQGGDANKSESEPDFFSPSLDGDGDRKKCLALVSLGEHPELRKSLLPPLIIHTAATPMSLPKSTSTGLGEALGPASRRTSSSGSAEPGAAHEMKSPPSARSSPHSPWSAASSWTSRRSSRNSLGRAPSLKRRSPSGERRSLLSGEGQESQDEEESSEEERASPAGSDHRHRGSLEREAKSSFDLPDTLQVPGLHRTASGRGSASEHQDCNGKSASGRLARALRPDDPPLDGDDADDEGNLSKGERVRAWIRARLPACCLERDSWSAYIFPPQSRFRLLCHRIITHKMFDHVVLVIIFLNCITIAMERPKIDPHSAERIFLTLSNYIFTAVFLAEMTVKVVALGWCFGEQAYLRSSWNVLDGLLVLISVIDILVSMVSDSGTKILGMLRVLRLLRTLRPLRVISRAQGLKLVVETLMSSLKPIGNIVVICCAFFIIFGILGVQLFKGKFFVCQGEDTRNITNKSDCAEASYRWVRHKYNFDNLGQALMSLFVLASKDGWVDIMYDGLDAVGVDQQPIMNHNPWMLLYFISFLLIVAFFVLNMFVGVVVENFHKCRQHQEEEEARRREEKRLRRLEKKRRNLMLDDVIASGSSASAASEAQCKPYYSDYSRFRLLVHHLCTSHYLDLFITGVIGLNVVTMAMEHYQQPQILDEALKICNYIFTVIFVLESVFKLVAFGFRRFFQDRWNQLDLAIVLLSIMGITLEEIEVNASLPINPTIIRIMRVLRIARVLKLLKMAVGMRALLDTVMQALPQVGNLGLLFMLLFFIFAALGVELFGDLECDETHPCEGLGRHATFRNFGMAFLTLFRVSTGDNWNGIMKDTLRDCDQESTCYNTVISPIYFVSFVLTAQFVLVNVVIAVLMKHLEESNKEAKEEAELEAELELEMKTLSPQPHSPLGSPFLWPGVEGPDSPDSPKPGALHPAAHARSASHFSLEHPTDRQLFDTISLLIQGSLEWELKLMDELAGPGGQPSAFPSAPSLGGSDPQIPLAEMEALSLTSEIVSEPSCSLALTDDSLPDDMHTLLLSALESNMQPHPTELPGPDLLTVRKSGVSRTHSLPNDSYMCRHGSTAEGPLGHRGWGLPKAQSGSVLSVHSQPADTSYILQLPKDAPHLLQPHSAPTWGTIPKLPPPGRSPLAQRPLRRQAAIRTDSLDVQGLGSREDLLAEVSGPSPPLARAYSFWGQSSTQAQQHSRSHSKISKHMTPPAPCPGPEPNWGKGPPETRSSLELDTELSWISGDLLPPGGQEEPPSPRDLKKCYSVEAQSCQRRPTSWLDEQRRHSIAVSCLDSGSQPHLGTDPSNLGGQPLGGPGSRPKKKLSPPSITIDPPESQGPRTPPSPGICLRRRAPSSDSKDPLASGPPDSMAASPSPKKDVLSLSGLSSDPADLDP

By IC50 is commonly meant the concentration that inhibits the measured activity by half. For the substance “[2-(1-adamantylimino)-3-cyclopropyl-1,3-thiazolidine-4-yl]-N-(4-trifluoromethylphenyl)-acetamide hydrochloride [KHG24790]”, the “FDSS (% inhibition)/10uM” value in test [1] was determined as 73.05%. For the same substance, in test [2], the “HEK293cell (% Inhibition) 10 μM” value is on record as 94.8 ± 0.9% and the IC50 came to 240 ± 10 nM.
For “[2-(1-adamantylimino)-3-ethyl-1,3-thiazolidine-4-yl]-N-(4-ethylphenyl)-acetamide hydrochloride [KHG24847]” the same measures were 72.23%, 95.5 ± 2.7% and 350 ± 10 nM.
Take “[2-(1-adamantylimino)-3-ethyl-1,3-thiazolidine-4-yl]-N-(4-trifluoromethylphenyl)-acetamide hydrochloride [KHG24821]”: the “FDSS (% inhibition)/10uM” value in test [1] worked out at 73.69%. Also, in test [2], the “HEK293cell (% Inhibition) 10 μM” value came out at 92.3 ± 1.8% and the IC50 worked out at 360 ± 20 nM.
Regarding “[2-(1-adamantylimino)-3-n-propyl-1,3-thiazolidine-4-yl]-N-(4-chloro-2-fluorophenyl)-acetamide hydrochloride [KHG24816]”, the “FDSS (% inhibition)/10uM” value in test [1] stood at 80.83%. Further, in test [2], the “HEK293cell (% Inhibition) 10 μM” value worked out at 95.6 ± 0.8% and the IC50 amounted to 510 ± 10 nM.
For the substance “[2-(1-adamantylimino)-3-n-propyl-1,3-thiazolidine-4-yl]-N-(4-ethylphenyl)-acetamide hydrochloride [KHG24814]”, the “FDSS (% inhibition)/10uM” value in test [1] is recorded as 76.32%. Besides, in test [2], the “HEK293cell (% Inhibition) 10 μM” value is given as 96.9 ± 1.8% and the IC50 stood at 300 ± 10 nM.
For “[2-(1-adamantylimino)-3-n-propyl-1,3-thiazolidine-4-yl]-N-(4-fluorophenyl)-acetamide hydrochloride [KHG24811]” the same measures were 71.82%, 94.8 ± 0.7% and 600 ± 40 nM.
